Experimental findings from patent US6815455B1, “Benzimidazole compounds and drugs containing the same” (Fuji Photo Film Co., Ltd., priority 1999, dated 2004) are described below.

Read-outs that look alike come from different tables or passages of the source.

The subject of the assay is mouse peritoneal macrophages. Put plainly: In vitro experiment using mouse peritoneal macrophages: suppression of foaming, cholesterol ester (CE) yield. Type of assay: cell-based. To be noted: for inhibitory effect on macrophages (rate of cholesterol ester synthesis), in words: mouse peritoneal macrophages, 5 μM.
[1] abbreviates: test compound 5 μM with liposomes, 16 hours, cholesterol ester yield relative to control without test compound = 100%, smaller value = more potent suppression.

For “4-(5-(benzimidazolyl-2-thio)pentyl)morpholine [Compound 2]”, the “CE yield (%)” value under setting [1] was found to be 18%.

On to `CC(C)c1cc(C(C)C)c(NC(=O)CN2CCN(CCSc3nc4ccccc4[nH]3)CC2)c(C(C)C)c1` [Ref. 2, reference compound], for which the “inhibitory effect on macrophages (rate of cholesterol ester synthesis), in words” value (“inhibitory effect on macrophages” below) is listed as “almost no inhibitory effect”. Also, under setting [1], the “CE yield (%)” value amounted to 98%.

In the case of `O=C(CCN1CCCCC1)CSc1nc2ccccc2[nH]1` [Ref. 4, reference compound], the “inhibitory effect on macrophages” value was “completely inactive”. The “CE yield (%)” value under setting [1] is listed as 89%.

For `c1ccc2[nH]c(SCCOCCN3CCOCC3)nc2c1` [Compound 50, 4-(2-(2-benzimidazoyl-2-thio)ethoxy)ethylmorpholine], the “CE yield (%)” value under setting [1] is 4.6%.

For “1-(5-(benzimidazoyl-2-thio)pentyl)piperidine [Compound 1]”, the “CE yield (%)” value is listed as 22%.

On to “1-(5-benzimidazolyl-2-thio)pentyl-1,2,3,4-tetrahydro-quinoline [Compound 34]”, for which the “CE yield (%)” value is 21%.

`COc1ccc2[nH]c(SCCN3CCNCC3)nc2c1` [Ref. 5, reference compound]: the “inhibitory effect on macrophages” value was “completely inactive”. Moreover, the “CE yield (%)” value under setting [1] came to 102%.

Turning to `CCCn1c(SCCCCCN2CCOCC2)nc2ccccc21` [Compound 6, 4-(5-(1-propylbenzimidazolyl-2-thio)pentyl)morpholine], the “CE yield (%)” value under setting [1] is listed as 27%.

Regarding “2-(6-(1-(4-hydroxy-4-phenyl)piperidino)heptyl)-1H-benzimidazole [Compound 58]”, the “CE yield (%)” value stood at 20%.

As for `N#CC1(c2ccccc2)CCN(CCCCCOc2nc3ccccc3[nH]2)CC1` [Compound 55, 1-(5-(benzimidazoyl-2-oxy)pentyl)-4-cyano-4-phenyl-piperidine], the “CE yield (%)” value amounted to 21%.

Regarding `CCCCCCN(CCCCCSc1nc2ccccc2[nH]1)C(=O)Nc1ccc(F)cc1F` [Ref. 3, reference compound], the “inhibitory effect on macrophages” value was “almost no inhibitory effect”. Moreover, under setting [1], the “CE yield (%)” value turned out to be 78%.

Consider “2-(5-(4-morpholino))-5-methoxybenzimidazole [Compound 19]”, for which the “CE yield (%)” value under setting [1] is on record as 24%.

As to `CCC(=O)n1c(SCCCCCN2CCOCC2)nc2ccccc21` [Compound 7, 4-(5-(1-propionylbenzimidazolyl-2-thio)pentyl)morpholine], the “CE yield (%)” value under setting [1] is 22%.

Consider `CC(C)Oc1cccc(OC(C)C)c1NC(=O)CN1CCN(CCCSc2nc3ccccc3[nH]2)CC1` [Ref. 1, reference compound], for which the “inhibitory effect on macrophages” value is on record as “almost no inhibitory effect”. Under setting [1], the “CE yield (%)” value was determined as 95%.

On to `O=C(CCCCSc1nc2ccccc2[nH]1)N1CCCc2ccccc21` [Compound 33, 1-(5-(4-benzimidazolyl-2-thio)valeryl)-1,2,3,4-tetrahydro-quinoline], for which the “CE yield (%)” value under setting [1] stood at 18%.

With “2-(5-(4-morpholino))-5-methylbenzimidazole [Compound 9]”, the “CE yield (%)” value under setting [1] is reported as 21%.

Take “2-(5-(4-morpholino))-5-chlorobenzimidazole [Compound 20]”: the “CE yield (%)” value under setting [1] is recorded as 25%.

As to “2-(6-(1-(4-cyano-4-phenyl)piperidino)heptyl)-1H-benzimidazole [Compound 57]”, the “CE yield (%)” value amounted to 22%.
